According to US20210252094A1, “COMPOSITION FOR IMPROVING SLEEP DISORDERS CAUSED BY CAFFEINE CONTAINING CITRUS RIND EXTRACT” (NOAHS CO., LTD., priority 2018, published 2021):
“Also recorded” adds a separate entry of the source.

System: brain hippocampal slices
Assay: Measurement of neural activity of cultured hippocampal slices on microelectrode array (MEA), caffeine-induced
Type: cell-based, Sprague Dawley white young rat
Details: for neural activity after washing: 1 mM caffeine plus sample (extract 400 μg/ml, hesperidin 40 μg/ml, narirutin 136 μg/ml), then washed 20 min with artificial cerebrospinal fluid only; for degree of neural activity compared to treatment of caffeine alone: perfused 20 min with 1 mM caffeine plus sample (citrus unshiu peel extract 400 μg/ml, hesperidin 40 μg/ml, narirutin 136 μg/ml), before washing
Description: A method of organotypic culturing of slices of the brain hippocampus using a thin film used an already commonly used method. Specifically, the brain hippocampus was extracted from a Sprague Dawley white young rat (Orientbio Co., Seungnam, Korea) of 5- to 7-day old, and sliced to a thickness of 350 μm using a tissue slicer (Mickle Laboratory Engineering Co., UK). After 5 to 6 slices were disposed into a thin film insert (Millicell-CM; Millipore, MA) with 0.4-μm holes, put in a 6-well plate (SPL Life Sciences Co., Korea), and then cultured in an incubator kept with 5% CO2 at 36° C. (Dong-A Co., Seoul, Korea). A culture solution (MEM; Welgene, Gyeongsan, South Korea), 20 mM HEPES (Sigma, St. Louis, Mo., USA), a 25% Hank's balanced salt solution (HBSS; Welgene, Gyeongsan, South Korea), 6 g/L D-glucose (Sigma, St. Louis, Mo., USA), 1 mM L-glutamine (Sigma, St. Louis, Mo., USA), 25% horse serum (Welgene, Gyeongsan, South Korea), and 1% penicillin-streptomycin (Gibco BRL, USA), pH=7.1) were changed once every two days, and the culture period was 12 to 14 days, and then used in a subsequent experiment (FIG. 5). After the cultured brain hippocampal slices were carefully isolated from the cultured thin film insert using a pin, the brain hippocampal slices were placed on a 8×8 microelectrode array (MEA; Multi Channel Systems, Germany) with a diameter of 10 μm and an interval of 100 μm coated with 0.01% polyethyleneimine (Sigma, St. Louis, Mo., USA). […] Thereafter, the MEA containing the brain hippocampus was mounted on an amplification device MEA1060 (Multi Channel Systems Inc., Reutlingen, Germany), and the artificial spinal cord solution in the MEA was grounded with Ag/AgCl. During the subsequent experiment, the artificial spinal cord solution into which the 5% CO2 and 95% 02 mixed gas was added was perfused at a rate of 3 mL/min, and the MEA and the artificial spinal cord solution were maintained at 33° C. (FIG. 6) . […] The MEA with the hippocampal tissue read data at a sampling rate of 25 kHz for each channel through a total of 60 channels, and was recorded through a computer using MC_Rack and MC_Data Tool (Multi Channel Systems, GmbH) software. A 4-stage band pass filter was used to extract meaningful spikes from all recorded signals, and Equation is as follows. Wherein, X represents a root mean square (RMS) for noise, and k is a factor that determines each threshold. Here, the threshold consisted of a total of three factors (0.6, 1 and 3). […] This process was performed using a MATLAB (Mathworks Inc., Natick, Massachusetts, USA) program for all 60 channels (FIG. 7).

| SMILES | increase of neural activity after washing (1 mM caffeine alone, after washing) | neural activity after washing | degree of neural activity compared to treatment of caffeine alone |
| --- | --- | --- | --- |
| Cn1c(=O)c2c(ncn2C)n(C)c1=O [caffeine, 1,3,7-trimetnylxanthine] | ≥ 200% |  |  |
| COc1ccc([C@@H]2CC(=O)c3c(O)cc(O[C@@H]4O[C@H](CO[C@@H]5O[C@@H](C)[C@H](O)[C@@H](O)[C@H]5O)[C@@H](O)[C@H](O)[C@H]4O)cc3O2)cc1O [hesperidin] |  | maintained without a significant increase; also recorded: neural activity inhibitory effect persisted | significantly reduced |
| C[C@@H]1O[C@@H](OC[C@H]2O[C@@H](Oc3cc(O)c4c(c3)O[C@H](c3ccc(O)cc3)CC4=O)[C@H](O)[C@@H](O)[C@@H]2O)[C@H](O)[C@H](O)[C@H]1O [narirutin] |  | maintained without a significant increase; also recorded: neural activity inhibitory effect persisted | significantly reduced |
